According to ChEMBL document CHEMBL4665642, “Anticancer profile of newly synthesized BRAF inhibitors possess 5-(pyrimidin-4-yl)imidazo[2,1-b]thiazole scaffold” (Bioorg Med Chem, 2019):

How the values were obtained:
Type in all cases: functional
Conditions in all cases: read-out: Activity
[1] = system: HL-60(TB); test: Cytotoxicity against human HL-60(TB) cells assessed as cell viability at 10 uM incubated for 48 hrs by sulforhodamine B assay relative to control
[2] = system: SN12C; test: Cytotoxicity against human SN12C cells assessed as cell viability at 10 uM incubated for 48 hrs by sulforhodamine B assay relative to control
[3] = system: HOP-92; test: Cytotoxicity against human HOP-92 cells assessed as cell viability at 10 uM incubated for 48 hrs by sulforhodamine B assay relative to control
[4] = system: RPMI-8226; test: Cytotoxicity against human RPMI-8226 cells assessed as cell viability at 10 uM incubated for 48 hrs by sulforhodamine B assay relative to control
[5] = system: KM12; test: Cytotoxicity against human KM12 cells assessed as cell viability at 10 uM incubated for 48 hrs by sulforhodamine B assay relative to control
[6] = system: SK-OV-3; test: Cytotoxicity against human SK-OV-3 cells assessed as cell viability at 10 uM incubated for 48 hrs by sulforhodamine B assay relative to control
[7] = system: TK-10; test: Cytotoxicity against human TK-10 cells assessed as cell viability at 10 uM incubated for 48 hrs by sulforhodamine B assay relative to control
[8] = system: MCF7; test: Cytotoxicity against human MCF7 cells assessed as cell viability at 10 uM incubated for 48 hrs by sulforhodamine B assay relative to control
[9] = system: DU-145; test: Cytotoxicity against human DU-145 cells assessed as cell viability at 10 uM incubated for 48 hrs by sulforhodamine B assay relative to control
[10] = system: A549; test: Cytotoxicity against human A549 cells assessed as cell viability at 10 uM incubated for 48 hrs by sulforhodamine B assay relative to control
[11] = system: SK-MEL-28; test: Cytotoxicity against human SK-MEL-28 cells assessed as cell viability at 10 uM incubated for 48 hrs by sulforhodamine B assay relative to control
[12] = system: Hs-578T; test: Cytotoxicity against human HS-578T cells assessed as cell viability at 10 uM incubated for 48 hrs by sulforhodamine B assay relative to control
[13] = system: NCI-H460; test: Cytotoxicity against human NCI-H460 cells assessed as cell viability at 10 uM incubated for 48 hrs by sulforhodamine B assay relative to control
[14] = system: SF-268; test: Cytotoxicity against human SF-268 cells assessed as cell viability at 10 uM incubated for 48 hrs by sulforhodamine B assay relative to control
[15] = system: HCT-29; test: Cytotoxicity against human […] cells assessed as cell viability at 10 uM incubated for 48 hrs by sulforhodamine B assay relative to control
[16] = system: PC-3; test: Cytotoxicity against human PC-3 cells assessed as cell viability at 10 uM incubated for 48 hrs by sulforhodamine B assay relative to control
[17] = system: OVCAR-3; test: Cytotoxicity against human OVCAR-3 cells assessed as cell viability at 10 uM incubated for 48 hrs by sulforhodamine B assay relative to control
[18] = system: MDA-MB-231; test: Cytotoxicity against human MDA-MB-231 cells assessed as cell viability at 10 uM incubated for 48 hrs by sulforhodamine B assay relative to control
[19] = system: M14; test: Cytotoxicity against human M14 cells assessed as cell viability at 10 uM incubated for 48 hrs by sulforhodamine B assay relative to control
[20] = system: SNB-75; test: Cytotoxicity against human SNB-75 cells assessed as cell viability at 10 uM incubated for 48 hrs by sulforhodamine B assay relative to control
[21] = system: SW-620; test: Cytotoxicity against human SW-620 cells assessed as cell viability at 10 uM incubated for 48 hrs by sulforhodamine B assay relative to control
[22] = system: Malme-3M; test: Cytotoxicity against human Malme-3M cells assessed as cell viability at 10 uM incubated for 48 hrs by sulforhodamine B assay relative to control
[23] = system: HCT-15; test: Cytotoxicity against human HCT-15 cells assessed as cell viability at 10 uM incubated for 48 hrs by sulforhodamine B assay relative to control
[24] = system: BT-549; test: Cytotoxicity against human BT-549 cells assessed as cell viability at 10 uM incubated for 48 hrs by sulforhodamine B assay relative to control
[25] = system: MOLT-4; test: Cytotoxicity against human MOLT-4 cells assessed as cell viability at 10 uM incubated for 48 hrs by sulforhodamine B assay relative to control
[26] = system: HOP-62; test: Cytotoxicity against human HOP-62 cells assessed as cell viability at 10 uM incubated for 48 hrs by sulforhodamine B assay relative to control
[27] = system: COLO 205; test: Cytotoxicity against human COLO 205 cells assessed as cell viability at 10 uM incubated for 48 hrs by sulforhodamine B assay relative to control
[28] = system: K562; test: Cytotoxicity against human K562 cells assessed as cell viability at 10 uM incubated for 48 hrs by sulforhodamine B assay relative to control
[29] = system: OVCAR-5; test: Cytotoxicity against human OVCAR-5 cells assessed as cell viability at 10 uM incubated for 48 hrs by sulforhodamine B assay relative to control
[30] = system: 786-0; test: Cytotoxicity against human 786-0 cells assessed as cell viability at 10 uM incubated for 48 hrs by sulforhodamine B assay relative to control
[31] = system: UO-31; test: Cytotoxicity against human UO-31 cells assessed as cell viability at 10 uM incubated for 48 hrs by sulforhodamine B assay relative to control
[32] = system: SF-539; test: Cytotoxicity against human SF-539 cells assessed as cell viability at 10 uM incubated for 48 hrs by sulforhodamine B assay relative to control
[33] = system: NCI/ADR-RES; test: Cytotoxicity against human NCI/ADR-RES cells assessed as cell viability at 10 uM incubated for 48 hrs by sulforhodamine B assay relative to control
[34] = system: SNB-19; test: Cytotoxicity against human SNB-19 cells assessed as cell viability at 10 uM incubated for 48 hrs by sulforhodamine B assay relative to control
[35] = system: IGROV-1; test: Cytotoxicity against human IGROV-1 cells assessed as cell viability at 10 uM incubated for 48 hrs by sulforhodamine B assay relative to control
[36] = system: OVCAR-4; test: Cytotoxicity against human OVCAR-4 cells assessed as cell viability at 10 uM incubated for 48 hrs by sulforhodamine B assay relative to control
[37] = system: RXF 393; test: Cytotoxicity against human RXF 393 cells assessed as cell viability at 10 uM incubated for 48 hrs by sulforhodamine B assay relative to control
[38] = system: NCI-H226; test: Cytotoxicity against human NCI-H226 cells assessed as cell viability at 10 uM incubated for 48 hrs by sulforhodamine B assay relative to control
[39] = system: SK-MEL-5; test: Cytotoxicity against human SK-MEL-5 cells assessed as cell viability at 10 uM incubated for 48 hrs by sulforhodamine B assay relative to control
[40] = system: UACC-62; test: Cytotoxicity against human UACC-62 cells assessed as cell viability at 10 uM incubated for 48 hrs by sulforhodamine B assay relative to control
[41] = system: T47D; test: Cytotoxicity against human T47D cells assessed as cell viability at 10 uM incubated for 48 hrs by sulforhodamine B assay relative to control

## O=S(=O)(NCCCNc1nccc(-c2c(-c3cccc(F)c3)nc3sccn23)n1)c1cccc2ccccc12
[1]
  viability at 10 µM: 53.9%
[2]
  viability at 10 µM: 46.9%
[3]
  viability at 10 µM: 94.6%
[4]
  viability at 10 µM: 44.9%
[5]
  viability at 10 µM: 26%
[6]
  viability at 10 µM: 65.8%
[7]
  viability at 10 µM: 71.7%
[8]
  viability at 10 µM: 37.4%
[9]
  viability at 10 µM: 49.9%
[10]
  viability at 10 µM: 45.6%
[11]
  viability at 10 µM: 77.5%
[12]
  viability at 10 µM: 55.9%
[13]
  viability at 10 µM: 19.9%
[14]
  viability at 10 µM: 44.5%
[15]
  viability at 10 µM: 1.97%
[16]
  viability at 10 µM: 41.2%
[17]
  viability at 10 µM: 68.7%
[18]
  viability at 10 µM: 4.05%
[19]
  viability at 10 µM: 42.7%
[20]
  viability at 10 µM: 86.5%
[21]
  viability at 10 µM: 42.1%
[22]
  viability at 10 µM: 78.7%
[23]
  viability at 10 µM: 18.1%
[24]
  viability at 10 µM: 65%
[25]
  viability at 10 µM: 29.3%
[26]
  viability at 10 µM: 80.7%
[27]
  viability at 10 µM: 21.5%
[28]
  viability at 10 µM: 15.2%
[29]
  viability at 10 µM: 80.9%
[30]
  viability at 10 µM: 52.9%
[31]
  viability at 10 µM: 20%
[32]
  viability at 10 µM: 72.8%
[33]
  viability at 10 µM: 47.1%
[34]
  viability at 10 µM: 69%
[35]
  viability at 10 µM: 22.3%
[36]
  viability at 10 µM: 40.1%
[37]
  viability at 10 µM: 62.9%
[38]
  viability at 10 µM: 36.8%
[39]
  viability at 10 µM: 31.8%
[40]
  viability at 10 µM: 24.3%
[41]
  viability at 10 µM: 18.4%

## O=S(=O)(NCCNc1nccc(-c2c(-c3cccc(F)c3)nc3sccn23)n1)c1ccccc1
[1]
  viability at 10 µM: 63.1%
[2]
  viability at 10 µM: 40.3%
[3]
  viability at 10 µM: 51.5%
[4]
  viability at 10 µM: 43.5%
[5]
  viability at 10 µM: 28.8%
[6]
  viability at 10 µM: 57.1%
[7]
  viability at 10 µM: 59.5%
[8]
  viability at 10 µM: 21.7%
[9]
  viability at 10 µM: 40%
[10]
  viability at 10 µM: 25.2%
[11]
  viability at 10 µM: 54.3%
[12]
  viability at 10 µM: 55.5%
[13]
  viability at 10 µM: 25.9%
[14]
  viability at 10 µM: 43.5%
[15]
  viability at 10 µM: 23.2%
[16]
  viability at 10 µM: 33.1%
[17]
  viability at 10 µM: 58.9%
[18]
  viability at 10 µM: 66%
[19]
  viability at 10 µM: 41.4%
[20]
  viability at 10 µM: 71.5%
[21]
  viability at 10 µM: 44.5%
[22]
  viability at 10 µM: 68.5%
[23]
  viability at 10 µM: 25.8%
[24]
  viability at 10 µM: 50.4%
[25]
  viability at 10 µM: 16.6%
[26]
  viability at 10 µM: 60.2%
[27]
  viability at 10 µM: 24.1%
[28]
  viability at 10 µM: 23.9%
[29]
  viability at 10 µM: 79.6%
[30]
  viability at 10 µM: 47.4%
[31]
  viability at 10 µM: 15.4%
[32]
  viability at 10 µM: 65.5%
[33]
  viability at 10 µM: 46.3%
[34]
  viability at 10 µM: 55.9%
[35]
  viability at 10 µM: 4.9%
[36]
  viability at 10 µM: 40%
[37]
  viability at 10 µM: 64.1%
[38]
  viability at 10 µM: 34.5%
[39]
  viability at 10 µM: 19.1%
[40]
  viability at 10 µM: 24.9%
[41]
  viability at 10 µM: 18.8%
